Source: US20050159481A1, “Medicinal composition for improving angiotension-regulating function of blood vessel endothelium” (CHUGAI SEIYAKU KABUSHIKI KAISHA, priority 2002, published 2005)

Tested on: rat mesenteric artery sections damaged by oxidized LDL
Assay: Vascular endothelium-dependent relaxation response to acetylcholine in rat vessel cross-sections damaged by oxidized LDL
Type: cell-based
Conditions: for ACh concentration at which the relaxation degree of 50% was achieved: 30 min perfusion, then oxidized LDL 100 μg/mL for 60 min, sections contracted with 5 μM phenylephrine
Method: The ability of a compound of the present invention to ameliorate the vascular tone-regulating function of vascular endothelium was evaluated by assaying vascular endothelium-dependent relaxation response to acetylcholine in the presence of a compound of the present invention using cross-section samples of rat vessels damaged by oxidized low-density lipoprotein (oxidized LDL).
Oxidized LDL is a substance derived from an endogenous low-density lipoprotein (LDL) via a exposure to a oxidative stress, and has been reported to be involved in the mechanism by which vascular endothelial cells are damaged (Tanner F C, Noll G, Boulanger C M, Luscher T F, Oxidized low density lipoproteins inhibit relaxations of porcine coronary arteries. Role of scavenger receptor and endothelium-derived nitric oxide. Circulation. 1991, 83:2012-20). The oxidized LDL used in this test was prepared by incubating rabbit LDL suspended at 200 μg/mL in phosphate buffered physiological saline (PBS) prepared by the method of Havel et al. (Havel R. J. et al., J. Clin. Invest., 34, 1345 (1955)) with 5 μM CuSO4 at 37° C. for 24 hours.
First, the mesenteric artery was collected from a rat euthanized by carbon dioxide inhalation into Krebs buffer (containing 118.0 mM NaCl, 4.7 mM KCl, 25.0 mM NaCO3, […] CaCl, 1.5 mM MgSO4 and 10 mM glucose), and the artery was cut into 2 mm wide annular cross sections. Then, the sections were suspended in a Magnus bath where they were equilibrated under a tension of 3 mN for 60 minutes. After equilibration, the sections were contracted with a 5 μM phenylephrine solution in Krebs buffer.
After confirming that a stable contraction was achieved, the perfusion solution was replaced with Krebs buffer containing 20 μM each of test compounds. The test compounds were the compound of the present invention, 4,6-di-t-butyl-5-hydroxy-2,2-di-n-pentyl-2,3-dihydrobenzofuran, and comparative compounds, probucol and α-tocopherol. Probucol is a compound reported to ameliorate the vascular tone-regulating function of vascular endothelium by preventing the decrease of the EDRF-secreting ability of vascular endothelial cells. α-tocopherol is a fat-soluble endogenous antioxidant known to inhibit the oxidation of LDL.
After perfusion for 30 minutes, oxidized LDL was added to a concentration of 100 μg/mL. After equilibration in the perfusion solution containing oxidized LDL for 60 minutes, acetylcholine (ACh) was cumulatively added at concentrations from 1×10^−10 M to 1×10^−5 M. At equally spaced ACh concentrations, the length of each section was measured to calculate the degree of relaxation (%) by dividing the difference between the lengths of the section before and after relaxation by the length before relaxation. This relaxation is a phenomenon resulting from the acetylcholine-induced secretion of EDRF from vascular endothelial cells.
In addition to the experiment described above, a similar experiment was performed except that the perfusion in Krebs buffer containing test compounds and the equilibration with oxidized LDL were omitted (control experiment) or except that the perfusion in Krebs buffer containing test compounds was omitted but the equilibration with oxidized LDL was included (oxidized LDL experiment).
The procedure of test example 1 was followed except that the concentration of the test compound was increased from 20 μM to 50 μM.

[1] = 20 μM test compound, compared with the oxidized LDL experiment, FIG. 1

| SMILES | ACh concentration at which the relaxation degree of 50% was achieved (20 μM test compound, FIG. 1) [nM] | Ameliorating effect on the vascular tone-regulating function of vascular endothelium damaged by oxidized LDL [1] | Ameliorating effect on the vascular tone-regulating function of vascular endothelium damaged by oxidized LDL (50 μM test compound, compared with the control, FIG. 2) |
| --- | --- | --- | --- |
| CCCCCC1(CCCCC)Cc2c(cc(C(C)(C)C)c(O)c2C(C)(C)C)O1 [compound of the present invention, 4,6-di-t-butyl-5-hydroxy-2,2-di-n-pentyl-2,3-dihydrobenzofuran] | 126 | ameliorated the vascular tone-regulating function of vascular endothelium | adverse influence of oxidized LDL-induced damages to vascular endothelial cells on the vascular tone-regulating function was completely removed |
| CC(C)(Sc1cc(C(C)(C)C)c(O)c(C(C)(C)C)c1)Sc1cc(C(C)(C)C)c(O)c(C(C)(C)C)c1 [probucol] | 121 |  |  |
| Cc1c(C)c2c(c(C)c1O)CC[C@@](C)(CCC[C@H](C)CCC[C@H](C)CCCC(C)C)O2 [α-tocopherol] | 261 | does not ameliorate the vascular tone-regulating function of vascular endothelium |  |
